Values joined by “and” are separate entries in the source; they are usually repeats but may differ in a detail not shown here. Equal entries are not always repeated. Where two headings read alike, the source gives them in different places.
Tests used:
CYP2A6 [1] = experiment: in vitro; conditions: read-out: IC50 for CYP2A6
Protocol: (§1) A cocktail-approach for elucidating the metabolites profiling and CYP450 inhibition was conducted as in Lin et al. with minor changes. The incubation mixture contained 50 μL of 0.2 mg/mL of CLM, 10 μL of 0.1 M phosphate buffer (pH 7.4), 40 μL of 1 mM NADPH and six probe substrates with a total volume of 200 μL. The specific probe substrates used for each CYP450 isoenzyme in the incubation mixture were as follows: PH (CYP1A2), BP (CYP2B6), CLN (CYP2E1), TBD (CYP2C9), CAN (CYP2A6), and MDZ (CYP3A4). Probes substrates were dissolved in methanol as stock solution (1 mg/mL). All of them were diluted to the final concentrations (see Supplemental Materials) with incubation buffer and the percentage of organic solvent in the final incubation volume was below 1% (v/v). Briefly, the mixture was preincubated in a thermoshaker (Biosan, Geraardsbergen, Belgium) for 5 min at 37 °C prior to the initiation of the reaction with NADPH.4Na. After incubation, the mixture was terminated by 400 μL ice-cold acetonitrile. […] A volume of 5 µL of supernatant was analysed using UHPLC-MS/MS.

[2] = system: CYP450 in chicken liver microsomes; experiment: in vitro; conditions: read-out: IC50 values in chicken liver microsomes (all CYP450 isoforms tested)
Protocol: as §1

[3] = in vivo, 5 mg/kg; cited from earlier work
[4] = in vivo, po; cited from earlier work
[5] = in vivo, cited from earlier work
[6] = design: species or system broiler chickens (Ross 308); conditions: in vivo
broilers = conditions: in vivo
[7] = rat, in vivo, po, cited from earlier work
CYP1A2, CYP3A4 = conditions: cited from earlier work
[8] = system: CYP1A2 (PH), CYP2B6 (BP), CYP2E1 (CLN), CYP2C9 (TBD), CYP2A6 (CAN), CYP3A4 (MDZ); experiment: in vitro; conditions: chicken, pH 7.4
Protocol: as §1, with “The incubation mixture contained 50 μL of 0.2 mg/mL of CLM, 10 μL of 0.1 M phosphate buffer (pH 7.4), 40 μL of 1 mM NADPH and six probe substrates with a total volume of 200 μL. The specific probe substrates used for each CYP450 isoenzyme in the incubation mixture were as follows: PH (CYP1A2), BP (CYP2B6), CLN (CYP2E1), TBD (CYP2C9), CAN (CYP2A6), and MDZ (CYP3A4).” left out
(§2) Enzyme kinetic studies were conducted for the six CYP450-related probes reactions. For each probe, the maximum rate of the Vmax and Km were obtained using GraphPad Prism v.8.0.2 software via Michaelis-Menten Kinetic model (La Jolla, CA, USA). The incubation times of 5, 10, 15, 30, 45 and 60 min were tested individually. A series of protein concentrations (0.05, 0.1, 0.2, 0.4, 0.6, 0.8 and 1 mg/mL) of CLM in the incubation mixture were conducted. Triplicate analyses were performed for each incubation system.

[9] = system: chicken liver microsomes (CYP450); experiment: in vitro
Protocol: as §1, with “The incubation mixture contained 50 μL of 0.2 mg/mL of CLM, 10 μL of 0.1 M phosphate buffer (pH 7.4), 40 μL of 1 mM NADPH and six probe substrates with a total volume of 200 μL. The specific probe substrates used for each CYP450 isoenzyme in the incubation mixture were as follows: PH (CYP1A2), BP (CYP2B6), CLN (CYP2E1), TBD (CYP2C9), CAN (CYP2A6), and MDZ (CYP3A4).” left out
as §2

CYP2A6 [10] = conditions: read-out: Km of CYP2A6; turkey; CAN as substrate; cited from earlier work

COc1cc2c(c3oc(=O)c4c(c13)CCC4=O)[C@@H]1C=CO[C@@H]1O2 [AFB1, aflatoxin B1]
IC50 (CYP2A6 [1]): 24.1 µM
IC50 [2]: > 7.6 µM
time for depletion in chicken liver, kidney, and muscle [3]: 10 to 19 days
Cmax [4]: 3.8 ± 0.9 ng/mL
MRT [4]: 11.73 ± 0.94 h
T1/2e [4]: 15.52 ± 0.51 h
Tmax [4]: 0.58 ± 0.17 h
AUC0–t ([5]; human): 0.0256 ± 0.0063 ng·h/mL
T1/2β ([5]; human): 64.4 h
Tmax ([5]; human): 1.02 ± 0.31 h
T1/2α [5]: 2.86 h
AUCINF_obs, Control [6]: 94.2 ± 40.4 ** h·ng/mL
AUCINF_obs, Treatment [6]: 265.8 ± 222.9 ng·h/mL
AUClast, Control [6]: 87.5 ± 39.6 ** h·ng/mL
AUClast, Treatment [6]: 170 ± 103.6 ng·h/mL
CL_F_obs, Control [6]: 238 ± 112 mL/min/kg
CL_F_obs, Treatment [6]: 157 ± 108 mL/min/kg
Cmax, Control [6]: 29.3 ± 3.2 ng/mL
MRTlast, Control [6]: 4.7 ± 0.7 h
MRTlast, Treatment [6]: 6.4 ± 3.2 h
T1/2λz, Treatment [6]: 1.4 ± 0.5 h
Tmax, Treatment [6]: 0.3 ± 0.1 h
Vd_F_obs, Control [6]: 14.8 ± 4.8 L/kg
Vd_F_obs, Treatment [6]: 18.4 ± 7.7 L/kg
increase of AUClast of AFB1 by TIA [6]: 194%
increase of mean residence time (MRT) of AFB1 by TIA [6]: 136%
adverse health effects in broilers (broilers): No significant adverse health effects
AUC0–24 ([7]; 1 mg/kg): 45.59 ± 17.19 ng·h/mL
CL ([7]; 1 mg/kg): 372.2 ± 163 mL/min/kg
Cmax ([7]; 1 mg/kg): 93.42 ± 23.01 ng/mL and 90 ± 20 ng/mL
Tmax ([7]; 1 mg/kg): about 0.15 h
Vd ([7]; 1 mg/kg): 226.46 ± 100.76 L/kg
T1/2e [7]: 7.62 h

CCOc1ccc(NC(C)=O)cc1 [Phenacetin]
Km (CYP1A2, CYP3A4): 98.1 ± 18.6 µM
Km ([8]; broiler): 20.7 µM
Km [8]: 20.7 µM
Vmax [9]: 63.1 nmol/min/mg

CCCCNC(=O)NS(=O)(=O)c1ccc(C)cc1 [Tolbutamide]
Vmax [9]: 159.4 nmol/min/mg

Cc1ncc2n1-c1ccc(Cl)cc1C(c1ccccc1F)=NC2 [Midazolam]
Km ([8]; broiler): 3.3 µM
Km [8]: 3.31 µM
Vmax [9]: 37.7 nmol/min/mg

O=c1ccc2ccccc2o1 [Coumarin]
Km (CYP2A6 [10]): 33.6 ± 8.52 µM
Km ([8]; broiler): 56.1 µM
Km [8]: 56.1 µM
Vmax ([9]; chicken liver microsomes, Michaelis-Menten, PH (CYP1A2), BP (CYP2B6), CLN (CYP2E1), TBD (CYP2C9), CAN (CYP2A6), MDZ (CYP3A4), n = 3): 190.8 nmol/min/mg

From PMC10974768 (Toxins, 2024)
